According to patent US8221762B2, “Naturally processed measles virus peptides from class II HLA molecules” (priority 2004, dated 2012):

Tests used:
[1] = tested on: PBMC of subjects previously immunized with MMR-II vaccine; test: IFN-γ supernatant cytokine response (ELISA) to measles virus and synthetic measles peptides; format: cell-based, human; settings: for Median secretion value IFN-γ: stimulated minus control cells
Experimental: (§1) To evaluate the immunogenicity of measles-derived peptides, 281 of these subjects (age 12 to 18 years) were studied.
(§2) Cryopreserved PBMC were used to measure cytokine responses to measles-derived peptides. We thawed cryopreserved PBMC at a concentration of 1×10^7 cells/mL using standard protocol. The vials were rapidly thawed in a 37° C. water bath and then washed twice with 10× volume of complete RPMI 1640 media supplemented with 10% FCS at 700 rpm for 5 minutes. The final cell pellet was resuspended in complete RPMI media containing penicillin-streptomycin (100 U/mL) and supplemented with 5% normal human AB sera (Ervin Sci., Santa Ana, Calif.). For IFN-γ determination, thawed PBMC were cultured at a concentration of 2×10^5 in RPMI containing 5% normal human AB sera with or without measles peptides (10 μg/well) and MV (positive control) at a moi of 0.5 for 6 days. For IL-4 determination in cell culture supernatants, we cultured thawed PBMC at a concentration of 4×10^5 in RPMI media, supplemented with 5% normal human AB sera. Cells were cultured in the presence of 2 μg/mL of IL-4 receptor antibody (R&D Systems, Minneapolis, Minn.) (Ekerfelt, et al., J. Immunol. Methods 260:55-67, 2002) with or without synthetic measles-derived peptides (10 μg/well) and MV (positive control) at a moi of 0.1 for 6 days. Cell culture supernatants were collected in a volume of 150 μl/well for both IFN-γ and IL-4 and were frozen at […] until assayed. The culture supernatants were assayed using a standard ELISA protocol (OptiEtA Human IFN-γ and IL-4, PharMingen, San Diego, Calif.) at a dilution of 1:1 in PBS containing 10% FCS. ELISA plates (Immulon-4, DYNEX Technologies Inc, Chantilly, Va.) were coated with capture IFN-γ or IL-4 mAb and incubated overnight at 4° C. The antibody-coated plates were incubated with diluted supernatant samples for 2 hours at room temperature followed by incubation with biotinylated mouse anti-human IFN-γor IL-4 conjugated to avidin-horseradish peroxidase for 1 hour at room temperature. The absorbance of the product was read using a microplate reader (Molecular Devices, Sunnyvale, Calif.) at 450 nm. The IFN-γ and IL-4 concentration of test samples was calculated by reference to the standard curve. Unstimulated and MV-stimulated secretion measurements for IFN-γ were performed in triplicate, while all other secretion measurements for both IFN-γ and IL-4 were performed in duplicate. Individual-specific values were then summarized by taking means of the duplicate or triplicate values. Mean background levels of IFN-γ and IL-4 cytokine production in cultures not stimulated with measles peptides or MV was subtracted from the mean antigen-induced responses to produce “corrected” secretion values. Negative corrected values indicate that the unstimulated secretion levels were, on average, higher than the stimulated secretion levels.
(§3) Two criteria were established to define positive responses for secreted IFN-γ and IL-4 cytokines using ELISA.

[2] = tested on: PBMC from subjects previously immunized with MMR-II vaccine; test: T cell proliferation assay ([3H]-thymidine, 3 days, SI cut point 3.0), Example 1; format: cell-based, human; settings: 95 subjects
Text: Study participants included ninety-five healthy residents of Olmsted County, Minn., aged 11 to 18 years. […] Mononuclear leukocytes were isolated by Ficoll-Hypaque (Amersham) density gradient centrifugation.
For descriptive analyses, we used medians and ranges for continuous variables and frequencies for categorical variables. We compared cpm for MV-stimulated, MV-P1-stimulated and MV-P2-stimulated cells with unstimulated cells using Wilcoxon signed rank tests. Associations between the continuously distributed stimulation indices for MV-P1, MV-P2 peptides, and MV were determined using Spearman rank correlation coefficients. Stimulation indices were subsequently dichotomized into positive or negative using a cut point of 3.0. We then compared MV positivity with MV-P1 and MV-P2 positivity using estimates of sensitivity.

[3] = tested on: PBMC of subjects previously immunized with MMR-II vaccine; test: IL-4 supernatant cytokine response (ELISA) to measles virus and synthetic measles peptides; format: cell-based, human; settings: for Median secretion value IL-4: stimulated minus control cells
Experimental: as §1, §2, §3

[4] = tested on: PBMC of subjects previously immunized with MMR-II vaccine; test: T cell proliferation assay ([3H]-thymidine, 4 days, SI>2 positive), Example 3; settings: 131 subjects (MV-P2 130, MV-F 43)
Experimental: Briefly, study participants were enrolled as part of a larger stratified random sample study to assess associations between HLA genes and immune response to measles-mumps-rubella-II (MMR-II) vaccine in healthy, school-age children and young adults (ages 12 to 18 years). To evaluate the cellular responses to measles peptides, 131 subjects were used. In addition, a random subset of 43 individuals was tested for reactivity to a control measles fusion (F) peptide. All enrolled subjects had been previously immunized with two doses of MMR-II vaccine (Merck Research, West Point, Pa.) containing the attenuated Edmonston strain of MV. All but four of these participants were Caucasian and all subjects resided in a geographic area where no wild-type MV had circulated in the community during the subjects' lifetimes.
In brief, peripheral blood mononuclear cells (PBMC) were separated from heparinized blood by Ficoll-Hypaque (Sigma, St. Louis, Mo.) density gradient centrifugation and washed in RPMI 1640 medium (Celox Laboratories, Inc., St. Paul, Minn.) supplemented with 2 mM L-glutamine, 100 μg/ml streptomycin, 100 U/ml penicillin and 8% fetal calf serum (Life Technologies, Gaithersburg, Md.). Measles virus, MV-P1, MV-P2, and MV-F specific T cell responses were measures by proliferation of PBMC (2×10^5) incubated in RPMI-1640 medium, supplemented with 5% autologous sera, with live attenuated MV (50 pfu/ml, positive control) or synthetic peptides (20 μg/ml) compared to unstimulated cell control wells. Phytohemagglutinin (PHA, 5 μg/ml) was used to assess cell vitality. Only assays in which PBMC responded to PHA were accepted. T lymphocyte proliferation was measured after 4 days by [^3H]-tritiated thymidine uptake. Cells were then harvested onto glass fiber filters, using a 96-well harvesting system (Skatron Instruments, Norway). The amount of incorporated radioactivity was determined by a liquid scintillation counter (Packard Instrument Company, Boston, Mass.). We used six replicates of counts per minute (cpm) values for unstimulated cells, and three replicates each for T cells stimulated with peptides and live measles vaccine. For each subject, median cpm were calculated for unstimulated cells, as well as for cells stimulated with MV-P1, MV-P2, MV-F and measles. Results were then expressed as antigen-specific stimulation indices (SI), defined as the ratio of the median cpm of antigen-stimulated wells to the median cpm of unstimulated control wells. […] SI>2 was arbitrarily selected prior to the study as an indication of the presence of reactive peptide specific memory T cells, and SI<2 as an indicator of the lack of memory T lymphocytes to measles-derived peptides (Pauksen, et al., Bone Marrow Transplant 20:317-323, 1997).
Three outcomes were of primary interest: T cell proliferation (as measured by stimulation indices) induced separately by live MV, the MV-P1 peptide, and the MV-P2 peptide variant. Data were descriptively summarized using frequencies and percentages for all categorical variables, and medians and ranges for all continuous variables.

[5] = 281 subjects, stimulated cells minus unstimulated cells
[6] = peptides 20 μg/ml, MV 50 PFU/well
[7] = peptides 20 μg/ml, MV 50 pfu/ml, 4 days

**Q.** How did the “IFN-γ % Response (>20 pg/mL)” value ([1]; 281 subjects, peptides 10 μg/well, MV moi 0.5, 6 days) turn out when CC[C@H](C)[C@H](NC(=O)[C@H](CCC(=O)O)NC(=O)CNC(=O)CNC(=O)[C@H](CCC(=O)O)NC(=O)[C@H](C)NC(=O)[C@@H](NC(=O)[C@H](CCC(=O)O)NC(=O)[C@@H](NC(=O)[C@H](CC(=O)O)NC(=O)[C@H](CO)NC(=O)[C@H](C)N)C(C)C)[C@@H](C)O)C(=O)N[C@@H](Cc1c[nH]cn1)C(=O)N[C@@H](CCC(=O)O)C(=O)N[C@@H](CC(C)C)C(=O)N[C@@H](CC(C)C)C(=O)N[C@@H](CCCNC(=N)N)C(=O)N[C@@H](CC(C)C)C(=O)N[C@@H](CCC(N)=O)C(=O)O [MV-P1] was run?
**A.** 55.9%

**Q.** And the “IFN-γ Median level” value [1, 5]?
**A.** 28.0 pg/mL

**Q.** And the “Median secretion value IFN-γ” value ([1]; All other HLA-DRB1 alleles)?
**A.** 26.7 pg/mL

**Q.** And the “Median secretion value IFN-γ” value ([1]; HLA-DRB1 allele *0101)?
**A.** 51.2 pg/mL

**Q.** What about the “Median secretion value IFN-γ” value ([1]; HLA-DRB1 allele *0102) of the same molecule?
**A.** 17.6 pg/mL

**Q.** What about the “Median secretion value IFN-γ” value ([1]; HLA-DRB1 allele *0103) of the same molecule?
**A.** 116.2 pg/mL

**Q.** What about the “Median secretion value IFN-γ” value ([1]; HLA-DRB1 allele *0301) of the same molecule?
**A.** 40.8 pg/mL

**Q.** And the “Median secretion value IFN-γ” value ([1]; HLA-DRB1 allele *0401)?
**A.** 33.5 pg/mL

**Q.** And the “Median secretion value IFN-γ” value ([1]; HLA-DRB1 allele *0402)?
**A.** 0.1 pg/mL

**Q.** What about the “Median secretion value IFN-γ” value ([1]; HLA-DRB1 allele *0404) of the same molecule?
**A.** 52.2 pg/mL

**Q.** What about the “Median secretion value IFN-γ” value ([1]; HLA-DRB1 allele *0407) of the same molecule?
**A.** 8.6 pg/mL

**Q.** And the “Median secretion value IFN-γ” value ([1]; HLA-DRB1 allele *0701)?
**A.** 18.6 pg/mL

**Q.** And the “Median secretion value IFN-γ” value ([1]; HLA-DRB1 allele *0801)?
**A.** 27.2 pg/mL

**Q.** What about the “Median secretion value IFN-γ” value ([1]; HLA-DRB1 allele *0901) of the same molecule?
**A.** 19.9 pg/mL

**Q.** What about the “Median secretion value IFN-γ” value ([1]; HLA-DRB1 allele *1001) of the same molecule?
**A.** 46.9 pg/mL

**Q.** And the “Median secretion value IFN-γ” value ([1]; HLA-DRB1 allele *1101)?
**A.** 48.5 pg/mL

**Q.** And the “Median secretion value IFN-γ” value ([1]; HLA-DRB1 allele *1103)?
**A.** 65.3 pg/mL

**Q.** What about the “Median secretion value IFN-γ” value ([1]; HLA-DRB1 allele *1104) of the same molecule?
**A.** 15.4 pg/mL

**Q.** What about the “Median secretion value IFN-γ” value ([1]; HLA-DRB1 allele *1201) of the same molecule?
**A.** 14.6 pg/mL

**Q.** And the “Median secretion value IFN-γ” value ([1]; HLA-DRB1 allele *1301)?
**A.** 27.4 pg/mL

**Q.** What about the “Median secretion value IFN-γ” value ([1]; HLA-DRB1 allele *1302) of the same molecule?
**A.** 14.2 pg/mL

**Q.** And the “Median secretion value IFN-γ” value ([1]; HLA-DRB1 allele *1303)?
**A.** 63.9 pg/mL

**Q.** What about the “Median secretion value IFN-γ” value ([1]; HLA-DRB1 allele *1401) of the same molecule?
**A.** 22.5 pg/mL

**Q.** And the “Median secretion value IFN-γ” value ([1]; HLA-DRB1 allele *1501)?
**A.** 32.8 pg/mL

**Q.** And the “Median secretion value IFN-γ” value ([1]; HLA-DRB1 allele *03011)?
**A.** 18.7 pg/mL

**Q.** And the “Median secretion value IFN-γ” value ([1]; Overall (281))?
**A.** 28.0 pg/mL

**Q.** What about the “MV IFN-γ responders who also produced IFN-γ to the peptide” value ([1]; among the 185 subjects who responded to MV) of the same molecule?
**A.** 59.5%

**Q.** And the “subjects with stimulation index greater than 3.0 (recognized)” value [2]?
**A.** 17%

**Q.** What about the “stimulation index, median” value [2, 6] of the same molecule?
**A.** 1.4

**Q.** And the “stimulation index, range” value [2, 6]?
**A.** 0.5-20.3

**Q.** And the “median cpm value, lymphoproliferative assay” value ([2]; peptides 20 μg/ml, live attenuated MV 50 PFU/well, 3 days)?
**A.** 472 cpm

**Q.** What about the “IL-4 % Response (>10 pg/mL)” value ([3]; 281 subjects, peptides 10 μg/well, MV moi 0.1, 6 days) of the same molecule?
**A.** 19.2%

**Q.** What about the “IL-4 Median level” value [3, 5] of the same molecule?
**A.** -0.4 pg/mL

**Q.** And the “Median secretion value IL-4” value ([3]; All other HLA-DRB1 alleles)?
**A.** -1.3 pg/mL

**Q.** And the “Median secretion value IL-4” value ([3]; HLA-DRB1 allele *0101)?
**A.** 1.1 pg/mL

**Q.** And the “Median secretion value IL-4” value ([3]; HLA-DRB1 allele *0102)?
**A.** 5.6 pg/mL

**Q.** What about the “Median secretion value IL-4” value ([3]; HLA-DRB1 allele *0103) of the same molecule?
**A.** -1.5 pg/mL

**Q.** And the “Median secretion value IL-4” value ([3]; HLA-DRB1 allele *0301)?
**A.** 3.5 pg/mL

**Q.** What about the “Median secretion value IL-4” value ([3]; HLA-DRB1 allele *0401) of the same molecule?
**A.** 0.9 pg/mL

**Q.** What about the “Median secretion value IL-4” value ([3]; HLA-DRB1 allele *0402) of the same molecule?
**A.** 3.8 pg/mL

**Q.** What about the “Median secretion value IL-4” value ([3]; HLA-DRB1 allele *0404) of the same molecule?
**A.** 0.3 pg/mL

**Q.** What about the “Median secretion value IL-4” value ([3]; HLA-DRB1 allele *0407) of the same molecule?
**A.** -2.1 pg/mL

**Q.** And the “Median secretion value IL-4” value ([3]; HLA-DRB1 allele *0701)?
**A.** -0.6 pg/mL

**Q.** And the “Median secretion value IL-4” value ([3]; HLA-DRB1 allele *0801)?
**A.** -1.4 pg/mL

**Q.** What about the “Median secretion value IL-4” value ([3]; HLA-DRB1 allele *0901) of the same molecule?
**A.** -0.9 pg/mL

**Q.** What about the “Median secretion value IL-4” value ([3]; HLA-DRB1 allele *1001) of the same molecule?
**A.** 0.9 pg/mL

**Q.** What about the “Median secretion value IL-4” value ([3]; HLA-DRB1 allele *1101) of the same molecule?
**A.** -3.7 pg/mL

**Q.** And the “Median secretion value IL-4” value ([3]; HLA-DRB1 allele *1103)?
**A.** -3.5 pg/mL

**Q.** And the “Median secretion value IL-4” value ([3]; HLA-DRB1 allele *1104)?
**A.** -1.3 pg/mL

**Q.** What about the “Median secretion value IL-4” value ([3]; HLA-DRB1 allele *1201) of the same molecule?
**A.** -0.4 pg/mL

**Q.** And the “Median secretion value IL-4” value ([3]; HLA-DRB1 allele *1301)?
**A.** -3.0 pg/mL

**Q.** What about the “Median secretion value IL-4” value ([3]; HLA-DRB1 allele *1302) of the same molecule?
**A.** 1.2 pg/mL

**Q.** And the “Median secretion value IL-4” value ([3]; HLA-DRB1 allele *1303)?
**A.** -4.2 pg/mL

**Q.** What about the “Median secretion value IL-4” value ([3]; HLA-DRB1 allele *1401) of the same molecule?
**A.** -0.8 pg/mL

**Q.** And the “Median secretion value IL-4” value ([3]; HLA-DRB1 allele *1501)?
**A.** -0.7 pg/mL

**Q.** What about the “Median secretion value IL-4” value ([3]; HLA-DRB1 allele *03011) of the same molecule?
**A.** 0.2 pg/mL

**Q.** What about the “Median secretion value IL-4” value ([3]; Overall (281)) of the same molecule?
**A.** -0.4 pg/mL

**Q.** And the “MV IL-4 responders who also responded to the peptide” value ([3]; among the 143 subjects with IL-4 production from MV-stimulated PBMC)?
**A.** 23.1%

**Q.** What about the “subjects with stimulation index greater than 2 (positive lymphoproliferative response)” value [4] of the same molecule?
**A.** 41%

**Q.** What about the “stimulation index, median” value [4, 7] of the same molecule?
**A.** 1.7

**Q.** What about the “stimulation index, range” value [4, 7] of the same molecule?
**A.** 0.5-20.3
